Experimental data reported in ChEMBL document CHEMBL1201862, “PubChem BioAssay data set” (2004).
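Method: 48-hour compound exposure of cells in 96-well plates, five concentrations, linear interpolation of endpoints. GI50 marks 50% less growth.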 Calls of active or inactive are those of the source. Rule as the data show it: active = GI50 up to about 1.1 µM and inactive = higher. *1 amine or outer side, *2 acyl side, *3 side chain or, on linkers, in order; H or OH if unused. Where a SMILES comes first, the peptide text is derived from it. [ ]: non-standard residue; d: D form. The star is where a group is joined. X31 = CC(=O)N(C)SCC(N[*:1])C(=O)[*:2]; Fmoc = O=C(OCC1c2ccccc2-c2ccccc21)*; For = O=C*

Experiments:
Experiment in all cases: NCI anticancer screen, dose series, 48 h
TK-10 = test system: TK-10
MDA-MB-231 = test system: MDA-MB-231
786-0 = test system: 786-0
UACC-62 = test system: UACC-62
MDA-MB-435 = test system: MDA-MB-435
ACHN = test system: ACHN
NCI/ADR-RES = test system: NCI/ADR-RES
A549 = test system: A549
HCT-116 = test system: HCT-116
OVCAR-8 = test system: OVCAR-8
EKVX = test system: EKVX
A498 = test system: A498
BT-549 = test system: BT-549
UACC-257 = test system: UACC-257
Malme-3M = test system: Malme-3M
NCI-H460 = test system: NCI-H460
RPMI-8226 = test system: RPMI-8226
PC-3 = test system: PC-3
HT-29 = test system: HT-29
SF-539 = test system: SF-539

Measured: GI50

Cc1cc(CN2CCCCC2)c(O)c(CN2CCCCC2)c1
inactive: TK-10 > 100 µM | MDA-MB-231 > 100 µM | 786-0 > 100 µM | UACC-62 > 100 µM | MDA-MB-435 > 100 µM | ACHN > 100 µM | NCI/ADR-RES > 100 µM | A549 > 100 µM | HCT-116 > 100 µM | OVCAR-8 > 100 µM | EKVX > 100 µM | A498 > 100 µM | BT-549 > 100 µM | UACC-257 > 100 µM | Malme-3M > 100 µM | NCI-H460 > 100 µM | RPMI-8226 22.8 µM | PC-3 > 100 µM | HT-29 > 100 µM

CCOC(=O)C(=O)N/N=C1\C(=O)Nc2ccccc21
inactive: TK-10 > 100 µM | MDA-MB-231 > 100 µM | 786-0 > 100 µM | UACC-62 > 100 µM | MDA-MB-435 > 100 µM | ACHN > 100 µM | NCI/ADR-RES > 100 µM | A549 > 100 µM | HCT-116 > 100 µM | OVCAR-8 > 100 µM | EKVX > 100 µM | A498 > 100 µM | BT-549 > 100 µM | UACC-257 > 100 µM | Malme-3M > 100 µM | NCI-H460 > 100 µM | RPMI-8226 > 100 µM | PC-3 > 100 µM

CC1=NN(c2ccc(S(=O)(=O)O)cc2)C2(C1)C(Cl)C(=O)N2c1nc2ccccc2s1 (stereo not drawn)
inactive: TK-10 > 100 µM | MDA-MB-231 > 100 µM | 786-0 > 100 µM | UACC-62 95.9 µM | MDA-MB-435 > 100 µM | ACHN > 100 µM | NCI/ADR-RES > 100 µM | A549 > 100 µM | HCT-116 > 100 µM | OVCAR-8 > 100 µM | EKVX 55.7 µM | A498 > 100 µM | BT-549 > 100 µM | UACC-257 > 100 µM | Malme-3M > 100 µM | NCI-H460 > 100 µM | RPMI-8226 > 100 µM | PC-3 > 100 µM | HT-29 > 100 µM

OC1CCCN(C2(c3cccs3)CCCCC2)C1 (stereo not drawn)
inactive: TK-10 > 100 µM | MDA-MB-231 > 100 µM | 786-0 > 100 µM | UACC-62 > 100 µM | MDA-MB-435 > 100 µM | ACHN > 100 µM | NCI/ADR-RES > 100 µM | HCT-116 > 100 µM | OVCAR-8 > 100 µM | EKVX > 100 µM | A498 > 100 µM | BT-549 > 100 µM | UACC-257 > 100 µM | Malme-3M > 100 µM | NCI-H460 > 100 µM | RPMI-8226 > 100 µM | PC-3 > 100 µM | HT-29 > 100 µM

CC(=O)N(C)SCC(NC(=O)C(Cc1ccccc1)NC(=O)OCC1c2ccccc2-c2ccccc21)C(=O)NC(Cc1ccccc1)C(=O)NC(Cc1cn(C=O)c2ccccc12)C(=O)NC(CCCCNC(=O)OCC1c2ccccc2-c2ccccc21)C(=O)NC(C(=O)NC(CSN(C)C(C)=O)C(=O)NC(C(N)=O)C(C)O)C(C)O (stereo not drawn) (Fmoc-F[X31]FW(For)K(Fmoc)T[X31]T-NH2; configuration not given here)
inactive: TK-10 24.2 µM | MDA-MB-231 14.9 µM | 786-0 > 100 µM | UACC-62 58.6 µM | MDA-MB-435 94.4 µM | ACHN 37 µM | NCI/ADR-RES > 100 µM | A549 > 100 µM | HCT-116 77.8 µM | OVCAR-8 > 100 µM | EKVX 84.9 µM | BT-549 > 100 µM | UACC-257 90.2 µM | SF-539 > 100 µM | Malme-3M > 100 µM | NCI-H460 33.5 µM | RPMI-8226 > 100 µM | PC-3 97.1 µM | HT-29 > 100 µM
